{"source": "patent US11005049B2", "about": "“Metal complexes” (priority 2013, dated 2021)", "key": {"[1]": {"test_system": "Salmonella typhimurium; strains TA98, TA100 and TA102", "test": "standardised AMES test, overall mutagenicity finding", "type": "cell-based", "from_the_text": "(§1) The solvent used is DMSO (dimethyl sulfoxide)."}, "[2]": {"test_system": "Salmonella typhimurium strain TA100", "experimental": "Compounds V1 and E2 are subjected to a standardised AMES test (bacteria: Salmonella typhimurium; strains TA98, TA100 and TA102). […] The test is carried out by the person skilled in the art employing standard methods which are well known in the prior art. The solvent used is DMSO (dimethyl sulfoxide).\nThe test is carried out both without and also with metabolic activation using an S9 mix."}, "[3]": {"test_system": "Salmonella typhimurium strain TA102", "test": "standardised AMES test, strain TA102", "type": "cell-based"}, "[4]": {"test_system": "Salmonella typhimurium strain TA98", "test": "standardised AMES test, strain TA98", "type": "cell-based", "from_the_text": "as §1"}, "[5]": {"conditions": "metabolic activation using S9 mix, 5 μg/plate"}, "[6]": {"conditions": "metabolic activation using S9 mix, 15.8 μg/plate"}, "[7]": {"conditions": "metabolic activation using S9 mix, 50 μg/plate"}, "[8]": {"conditions": "metabolic activation using S9 mix, 158 μg/plate"}, "[9]": {"conditions": "metabolic activation using S9 mix, 500 μg/plate"}, "[10]": {"conditions": "metabolic activation using S9 mix, 1580 μg/plate"}, "[11]": {"conditions": "metabolic activation using S9 mix, 5000 μg/plate"}, "[12]": {"conditions": "no metabolic activation, 5 μg/plate"}, "[13]": {"conditions": "no metabolic activation, 15.8 μg/plate"}, "[14]": {"conditions": "no metabolic activation, 50 μg/plate"}, "[15]": {"conditions": "no metabolic activation, 158 μg/plate"}, "[16]": {"conditions": "no metabolic activation, 500 μg/plate"}, "[17]": {"conditions": "no metabolic activation, 1580 μg/plate"}, "[18]": {"conditions": "no metabolic activation, 5000 μg/plate"}}, "note": "“And” between values parts separate entries of the source, which are not always exact repeats. Equal values may be shown once. Read-outs that look alike come from different tables or passages of the source."}
{"smiles": "CC(C)(C)c1ccc2cccc(O)c2n1.[Li]", "note": "[Compound E2, lithium 2-tert-butyl-8-hydroxyquinoline]", "values": [{"measurement": "mutagenic effect in AMES test", "setting": "[1]; both without and with metabolic activation using an S9 mix", "result": "No mutagenic effect"}, {"measurement": "Revertants/plate (mean ± SD) TA100", "setting": "[2]; [5]", "result": "199 ± 4", "unit": "Revertants/plate"}, {"measurement": "Revertants/plate (mean ± SD) TA100", "setting": "[2]; [6]", "result": "132 ± 11", "unit": "Revertants/plate"}, {"measurement": "Revertants/plate (mean ± SD) TA100", "setting": "[2]; [7]", "result": "143 ± 8", "unit": "Revertants/plate"}, {"measurement": "Revertants/plate (mean ± SD) TA100", "setting": "[2]; [8]", "result": "147 ± 8^S Revertants/plate"}, {"measurement": "Revertants/plate (mean ± SD) TA100", "setting": "[2]; [9]", "result": "108 ± 1^SB Revertants/plate"}, {"measurement": "Revertants/plate (mean ± SD) TA100", "setting": "[2]; [10]", "result": "57 ± 16", "unit": "Revertants/plate"}, {"measurement": "Revertants/plate (mean ± SD) TA100", "setting": "[2]; [11]", "result": "4 ± 3", "unit": "Revertants/plate"}, {"measurement": "Revertants/plate (mean ± SD) TA100", "setting": "[2]; [12]", "result": "142 ± 25", "unit": "Revertants/plate"}, {"measurement": "Revertants/plate (mean ± SD) TA100", "setting": "[2]; [13]", "result": "133 ± 8", "unit": "Revertants/plate"}, {"measurement": "Revertants/plate (mean ± SD) TA100", "setting": "[2]; [14]", "result": "104 ± 12", "unit": "Revertants/plate"}, {"measurement": "Revertants/plate (mean ± SD) TA100", "setting": "[2]; [15]", "result": "103 ± 1^S Revertants/plate"}, {"measurement": "Revertants/plate (mean ± SD) TA100", "setting": "[2]; [16]", "result": "62 ± 17^SB Revertants/plate"}, {"measurement": "Revertants/plate (mean ± SD) TA100", "setting": "[2]; [17]", "result": "41 ± 2", "unit": "Revertants/plate"}, {"measurement": "Revertants/plate (mean ± SD) TA100", "setting": "[2]; [18]", "result": "7 ± 3", "unit": "Revertants/plate"}, {"measurement": "Revertants/plate (mean ± SD) TA102", "setting": "[3]; [5]", "result": "302 ± 18", "unit": "Revertants/plate"}, {"measurement": "Revertants/plate (mean ± SD) TA102", "setting": "[3]; [6]", "result": "255 ± 8", "unit": "Revertants/plate"}, {"measurement": "Revertants/plate (mean ± SD) TA102", "setting": "[3]; [7]", "result": "245 ± 22", "unit": "Revertants/plate"}, {"measurement": "Revertants/plate (mean ± SD) TA102", "setting": "[3]; [8]", "result": "142 ± 22^S Revertants/plate"}, {"measurement": "Revertants/plate (mean ± SD) TA102", "setting": "[3]; [9]", "result": "89 ± 11^SB Revertants/plate"}, {"measurement": "Revertants/plate (mean ± SD) TA102", "setting": "[3]; [10]", "result": "62 ± 3^SB Revertants/plate"}, {"measurement": "Revertants/plate (mean ± SD) TA102", "setting": "[3]; [11]", "result": "37 ± 1^SE Revertants/plate"}, {"measurement": "Revertants/plate (mean ± SD) TA102", "setting": "[3]; [12]", "result": "224 ± 6", "unit": "Revertants/plate"}, {"measurement": "Revertants/plate (mean ± SD) TA102", "setting": "[3]; [13]", "result": "217 ± 41", "unit": "Revertants/plate"}, {"measurement": "Revertants/plate (mean ± SD) TA102", "setting": "[3]; [14]", "result": "237 ± 11", "unit": "Revertants/plate"}, {"measurement": "Revertants/plate (mean ± SD) TA102", "setting": "[3]; [15]", "result": "180 ± 11^S Revertants/plate"}, {"measurement": "Revertants/plate (mean ± SD) TA102", "setting": "[3]; [16]", "result": "124 ± 1^SB Revertants/plate"}, {"measurement": "Revertants/plate (mean ± SD) TA102", "setting": "[3]; [17]", "result": "51 ± 18^SB Revertants/plate"}, {"measurement": "Revertants/plate (mean ± SD) TA102", "setting": "[3]; [18]", "result": "25 ± 1^SE Revertants/plate"}, {"measurement": "Revertants/plate (mean ± SD) TA98", "setting": "[4]; [5]", "result": "24 ± 6", "unit": "Revertants/plate"}, {"measurement": "Revertants/plate (mean ± SD) TA98", "setting": "[4]; [6]", "result": "30 ± 2", "unit": "Revertants/plate"}, {"measurement": "Revertants/plate (mean ± SD) TA98", "setting": "[4]; [7]", "result": "33 ± 4", "unit": "Revertants/plate"}, {"measurement": "Revertants/plate (mean ± SD) TA98", "setting": "[4]; [8]", "result": "30 ± 3^S Revertants/plate"}, {"measurement": "Revertants/plate (mean ± SD) TA98", "setting": "[4]; [9]", "result": "25 ± 7^SB Revertants/plate"}, {"measurement": "Revertants/plate (mean ± SD) TA98", "setting": "[4]; [10]", "result": "18 ± 5^SB Revertants/plate"}, {"measurement": "Revertants/plate (mean ± SD) TA98", "setting": "[4]; [11]", "result": "13 ± 1^SE Revertants/plate"}, {"measurement": "Revertants/plate (mean ± SD) TA98", "setting": "[4]; [12]", "result": "23 ± 11", "unit": "Revertants/plate"}, {"measurement": "Revertants/plate (mean ± SD) TA98", "setting": "[4]; [13]", "result": "29 ± 3", "unit": "Revertants/plate"}, {"measurement": "Revertants/plate (mean ± SD) TA98", "setting": "[4]; [14]", "result": "18 ± 6", "unit": "Revertants/plate"}, {"measurement": "Revertants/plate (mean ± SD) TA98", "setting": "[4]; [15]", "result": "20 ± 6^S Revertants/plate"}, {"measurement": "Revertants/plate (mean ± SD) TA98", "setting": "[4]; [16]", "result": "14 ± 8^SB Revertants/plate"}, {"measurement": "Revertants/plate (mean ± SD) TA98", "setting": "[4]; [17]", "result": "10 ± 4^SB Revertants/plate"}, {"measurement": "Revertants/plate (mean ± SD) TA98", "setting": "[4]; [18]", "result": "17 ± 6^SE Revertants/plate"}]}
{"smiles": "Oc1cccc2cccnc12.[Li]", "note": "[Liq, lithium 8-hydroxyquinoline, reference compound]", "values": [{"measurement": "mutagenicity in AMES test", "setting": "[1]; all three bacteria strains, in the presence of metabolic activation", "result": "significant mutagenicity"}, {"measurement": "Revertants/plate (mean ± SD) TA102", "setting": "[3]; [5]", "result": "559 ± 8", "unit": "Revertants/plate"}, {"measurement": "Revertants/plate (mean ± SD) TA102", "setting": "[3]; [6]", "result": "697 ± 8", "unit": "Revertants/plate"}, {"measurement": "Revertants/plate (mean ± SD) TA102", "setting": "[3]; [7]", "result": "1469 ± 27", "unit": "Revertants/plate"}, {"measurement": "Revertants/plate (mean ± SD) TA102", "setting": "[3]; [8]", "result": "911 ± 269", "unit": "Revertants/plate"}, {"measurement": "Revertants/plate (mean ± SD) TA102", "setting": "[3]; [12]", "result": "344 ± 33", "unit": "Revertants/plate"}, {"measurement": "Revertants/plate (mean ± SD) TA102", "setting": "[3]; [13]", "result": "270 ± 30", "unit": "Revertants/plate"}, {"measurement": "Revertants/plate (mean ± SD) TA102", "setting": "[3]; [14]", "result": "257 ± 59", "unit": "Revertants/plate"}, {"measurement": "Revertants/plate (mean ± SD) TA98", "setting": "[4]; [5]", "result": "31 ± 11", "unit": "Revertants/plate"}, {"measurement": "Revertants/plate (mean ± SD) TA98", "setting": "[4]; [6]", "result": "40 ± 2", "unit": "Revertants/plate"}, {"measurement": "Revertants/plate (mean ± SD) TA98", "setting": "[4]; [7]", "result": "87 ± 1", "unit": "Revertants/plate"}, {"measurement": "Revertants/plate (mean ± SD) TA98", "setting": "[4]; [8]", "result": "100 ± 4", "unit": "Revertants/plate"}, {"measurement": "Revertants/plate (mean ± SD) TA98", "setting": "[4]; [12]", "result": "23 ± 2", "unit": "Revertants/plate"}, {"measurement": "Revertants/plate (mean ± SD) TA98", "setting": "[4]; [13]", "result": "20 ± 4", "unit": "Revertants/plate"}, {"measurement": "Revertants/plate (mean ± SD) TA98", "setting": "[4]; [14]", "result": "22 ± 1", "unit": "Revertants/plate"}]}
{"smiles": "[N-]=[N+]=[N-]", "note": "[NaN3, sodium azide, reference compound]", "values": [{"measurement": "Revertants/plate (mean ± SD) TA100", "setting": "[2]; no metabolic activation, 2 μg/plate, reference", "result": "1090 ± 35 Revertants/plate and 743 ± 52 Revertants/plate"}]}
